Two molecules from patent US12083105B2, “Compositions and methods for treating adult-onset neuronal ceroid lipofuscinosis (Kufs disease)” (CORNELL UNIVERSITY, priority 2020, dated 2024) can be followed below.

For this test, the system named is Fe—S clusters bound to immunoprecipitated CSPα. Description: UV-Vis absorbance spectra of CSPα immunoprecipitated from ANCL patient fibroblasts. Type of test: cell-based, human. As to conditions: 200 μM, 72 h, compared to control (0.1% DMSO), FIG. 7A. The method, then:
ANCL patient-derived fibroblasts were treated with 200 μM of L1 or Dfx, or vehicle (0.1% DMSO=Control) for 72 h, before measuring the UV-Vis absorbance spectra of immunoprecipitated CSPα eluted by trypsinization (solid lines). Spectra were re-read after 10 min of 0.1 N HCl treatment (dashed lines). The experiments shown in FIGS. 7B-7I, were conducted using ANCL fibroblasts converted to iNs using BAM+ND1 technique. […] Quantitative immunoblotting was used to measure levels of oligomerized and fully palmitoylated CSPα as well as total SNAP-25. Oligo=oligomers; Palm=palmitoylated. […] The interaction of CSPα with SNAP-25 in ANCL iNs was measured by immunoprecipitating SNAP-25 followed by quantitative immunoblotting of co-immunoprecipitated CSPα (normalized to SNAP-25 IP). Note that mainly CSPα monomers and not oligomers were detected bound to SNAP-25. Control=control sham IP without IgG. […] Turnover of SNAP-25 was determined by cycloheximide chase, while maintaining the iron-chelators or vehicle in the medium. […] In the experiments shown in FIGS. 7E-7G, ANCL iNs treated with L1, Dfx, or vehicle for 56 d and analyzed. […] The levels of lipofuscin were determined by ELISA. In the experiments shown in FIGS. 7H-7I 56 day old untreated ANCL iNs were treated with L1, Dfx, or vehicle, and analyzed. […]

Structures are written as SMILES.

On to `CC(=O)N(O)CCCCCNC(=O)CCC(=O)N(O)CCCCCNC(=O)CCC(=O)N(O)CCCCCN` [Dfx, N′-[5-(Acetyl-hydroxy-amino)pentyl]-N-[5-[3-(5-aminopentyl-hydroxy-carbamoyl)propanoylamino]pentyl]-N-hydroxy-butane diamide], for which the “UV-Vis signature of Fe—S clusters bound to immunoprecipitated CSPα” value is recorded as “reduced”.

For the molecule `Cc1c(O)c(=O)ccn1C` [L1, 3-hydroxy-1,2-dimethyl-4(1H)-pyridone], the “UV-Vis signature of Fe—S clusters bound to immunoprecipitated CSPα” value is “reduced”.
